Data taken from US20090264401A1, “SUBSTITUTED PYRIMIDIN-5-CARBOXAMIDES 281” (AstraZeneca AB, priority 2008, published 2009).

biological target: T1, human 11βHSD1 enzyme (Homo sapiens, UniProt P28845); experiment: 11βHSD1 cortisone to cortisol conversion, competitive HTRF assay; format: biochemical; settings: human 11-βHSD; test concentration of 30 μM of compound
T1 construct: baculovirus expressed N terminal 6-His tagged full length human 11βHSD1 enzyme; 6-His (N); made in house
How it was run: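 Enzyme was baculovirus-expressed, N-terminal 6-His-tagged full-length human 11βHSD1, purified on a copper chelate column. Compounds were added in buffer containing 1% DMSO at 10-fold final concentration.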

T1 sequence (P28845 whole entry): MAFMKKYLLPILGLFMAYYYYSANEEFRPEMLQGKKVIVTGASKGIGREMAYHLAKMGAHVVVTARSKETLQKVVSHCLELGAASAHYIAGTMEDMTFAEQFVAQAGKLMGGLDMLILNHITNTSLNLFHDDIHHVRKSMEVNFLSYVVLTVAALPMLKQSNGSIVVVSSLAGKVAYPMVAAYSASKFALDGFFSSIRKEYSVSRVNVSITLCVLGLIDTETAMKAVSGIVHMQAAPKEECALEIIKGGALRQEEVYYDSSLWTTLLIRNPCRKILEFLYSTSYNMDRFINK

Structure (SMILES)	inhibition at 30 µM [%]
CCCSc1ncc(C(=O)N[C@H]2C3CC4CC2C[C@@](O)(C4)C3)c(N(C)C)n1 [Example 18, 4-Dimethylamino-N-[(2r,5s)-5-hydroxyadamantan-2-yl]-2-propylsulfanylpyrimidine-5-carboxamide]	98.5
O=C(N[C@H]1C2CC3CC1C[C@@](O)(C3)C2)c1cnc(NCCN2CCOCC2)nc1C1CCCC1 [Example 147, 4-cyclopentyl-N-[(2r,5s)-5-hydroxytricyclo[3.3.1.13,7]dec-2-yl]-2-[(2-morpholin-4-ylethyl)amino]pyrimidine-5-carboxamide]	103
CCCSc1ncc(C(=O)N[C@H]2C3CC4CC2C[C@@](O)(C4)C3)c(N2C[C@@H](C)O[C@@H](C)C2)n1 [Example 24, 4-[(2S,6R)-2,6-Dimethylmorpholin-4-yl]-N-[(2r,5s)-5-hydroxyadamantan-2-yl]-2-propylsulfanylpyrimidine-5-carboxamide]	68
CSc1ncc(C(=O)N[C@H]2C3CC4CC2C[C@@](O)(C4)C3)c(C2CC2)n1 [Example 11, 4-Cyclopropyl-N-[(2r,5s)-5-hydroxyadamantan-2-yl]-2-methylsulfanyl-pyrimidine-5-carboxamide]	97.5
COCCN1CCN(c2ncc(C(=O)N[C@H]3C4CC5CC3C[C@@](O)(C5)C4)c(C3CC3)n2)CC1 [Example 55, 4-cyclopropyl-N-[(2r,5s)-5-hydroxyadamantan-2-yl]-2-[4-(2-methoxyethyl)piperazin-1-yl]pyrimidine-5-carboxamide]	96.9
O=C(N[C@H]1C2CC3CC1C[C@@](O)(C3)C2)c1cnc(NC2CC2)nc1C1CCCO1 (stereo partly shown) [Example 160, 2-(cyclopropylamino)-N-[(2r,5s)-5-hydroxyadamantan-2-yl]-4-(oxolan-2-yl)pyrimidine-5-carboxamide]	104
O=C(N[C@H]1C2CC3CC1C[C@@](O)(C3)C2)c1cnc(NC2CCC2)nc1[C@H]1CCCO1 [Example 175, 2-(cyclobutaylamino)-N-[(2r,5s)-5-hydroxyadamantan-2-yl]-4-[(2R)-oxolan-2-yl]pyrimidine-5-carboxamide]	103
CNc1ncc(C(=O)N[C@H]2C3CC4CC2C[C@@](O)(C4)C3)c([C@H]2CCCO2)n1 [Example 167, N-[(2r,5s)-5-hydroxyadamantan-2-yl]-2-methylamino-4-[(2R)-oxolan-2-yl]pyrimidine-5-carboxamide]	101
COCc1nc(N2C[C@@H](C)O[C@@H](C)C2)ncc1C(=O)N[C@H]1C2CC3CC1C[C@@](O)(C3)C2 [Example 219, 2-[(2S,6R)-2,6-Dimethylmorpholin-4-yl]-N-[(2r,5s)-5-hydroxyadamantan-2-yl]-4-(methoxymethyl)pyrimidine-5-carboxamide]	98.6
Cc1ncc(C(=O)N[C@H]2C3CC4CC2C[C@@](O)(C4)C3)c(OC(C)C)n1 [Example 202, N-[(2r,5s)-5-hydroxyadamantan-2-yl]-2-methyl-4-propan-2-yloxypyrimidine-5-carboxamide]	102
Cc1ncc(C(=O)NC2C3CC4CC(C3)CC2C4)c(C2CC2)n1 (stereo not shown) [Example 12, N-(2-adamantyl)-4-cyclopropyl-2-methyl-pyrimidine-5-carboxamide]	97.3
O=C(N[C@H]1C2CC3CC1C[C@@](O)(C3)C2)c1cnc(NCCO)nc1C1CC1 [Example 69, 4-cyclopropyl-N-[(2r,5s)-5-hydroxyadamantan-2-yl]-2-[(2-hydroxyethyl)amino]pyrimidine-5-carboxamide]	102
O=C(N[C@H]1C2CC3CC1C[C@@](O)(C3)C2)c1cnc(N2CC3CC2CS3)nc1C1CC1 [Example 46, 4-Cyclopropyl-N-[(2r,5s)-5-hydroxyadamantan-2-yl]-2-(3-thia-6-azabicyclo[2.2.1]heptan-6-yl)pyrimidine-5-carboxamide]	104
CC(C)(C)c1ncncc1C(=O)N[C@H]1C2CC3CC1C[C@@](O)(C3)C2 [Example 7]	88.3
CN1CCN(CCNc2ncc(C(=O)N[C@H]3C4CC5CC3C[C@@](O)(C5)C4)c(C3CC3)n2)CC1 [Example 74, 4-cyclopropyl-N-[(2r,5s)-5-hydroxyadamantan-2-yl]-2-{[2-(4-methylpiperazin-1-yl)ethyl]amino}pyrimidine-5-carboxamide]	88.5
CC(C)Oc1nc(NC2CC2)ncc1C(=O)N[C@H]1C2CC3CC1C[C@@](O)(C3)C2 [Example 215, 2-(cyclopropylamino)-N-[(2r,5s)-5-hydroxytricyclo[3.3.1.13,7]dec-2-yl]-4-(1-methylethoxy)pyrimidine-5-carboxamide]	94.9
CC(C)Nc1ncc(C(=O)N[C@H]2C3CC4CC2C[C@@](O)(C4)C3)c(C2CC2)n1 [Example 64, 4-cyclopropyl-N-[(2r,5s)-5-hydroxyadamantan-2-yl]-2-(isopropylamino)pyrimidine-5-carboxamide]	95.9

Next, values leading:

inhibition at 30 µM [%]	Structure (SMILES)
95.7	CNc1ncc(C(=O)N[C@H]2C3CC4CC2C[C@@](O)(C4)C3)c(C2CCC2)n1 [Example 91, 4-cyclobutyl-N-[(2r,5s)-5-hydroxyadamantan-2-yl]-2-(methylamino)pyrimidine-5-carboxamide]
101	NC1(c2ncc(C(=O)N[C@H]3C4CC5CC3C[C@@](O)(C5)C4)c(C3CCCC3)n2)CC1 [Example 151, 2-(1-Aminocyclopropyl)-4-cyclopentyl-N-[(2r,5s)-5-hydroxyadamantan-2-yl]pyrimidine-5-carboxamide]
99.2	O=C(N[C@H]1C2CC3CC1C[C@@](O)(C3)C2)c1cnc(N2CCCSCC2)nc1C1CC1 [Example 43, 4-Cyclopropyl-N-[(2r,5s)-5-hydroxyadamantan-2-yl]-2-(1,4-thiazepan-4-yl)pyrimidine-5-carboxamide]
97.5	O=C(N[C@H]1C2CC3CC1C[C@@](O)(C3)C2)c1cnc(NC2CC2)nc1C1CCCC1 [Example 122, 4-cyclopentyl-2-(cyclopropylamino)-N-[(2r,5s)-5-hydroxyadamantan-2-yl]pyrimidine-5-carboxamide]
98	CS(=O)(=O)N1CCN(c2ncc(C(=O)N[C@H]3C4CC5CC3C[C@@](O)(C5)C4)c(C3CC3)n2)CC1 [Example 70, 4-cyclopropyl-N-[(2r,5s)-5-hydroxyadamantan-2-yl]-2-(4-methylsulfonylpiperazin-1-yl)pyrimidine-5-carboxamide]
103	CC(C)N1CCN(c2ncc(C(=O)N[C@H]3C4CC5CC3C[C@@](O)(C5)C4)c(C3CCCC3)n2)CC1=O [Example 127, 4-cyclopentyl-N-[(2r,5s)-5-hydroxyadamantan-2-yl]-2-(3-oxo-4-propan-2-ylpiperazin-1-yl)pyrimidine-5-carboxamide]
93.4	O=C(N[C@H]1C2CC3CC1C[C@@](O)(C3)C2)c1cnc(N2CC(F)(F)C2)nc1C1CCCC1 [Example 146, 4-cyclopentyl-2-(3,3-difluoroazetidin-1-yl)-N-[(2r,5s)-5-hydroxyadamantan-2-yl]pyrimidine-5-carboxamide]
104	O=C(N[C@H]1C2CC3CC1C[C@@](O)(C3)C2)c1cnc(OC2CCCC2)nc1C1CCCC1 [Example 112, 4-cyclopentyl-2-cyclopentyloxy-N-[(2r,Ss)-5-hydroxyadamantan-2-yl]pyrimidine-5-carboxamide]
99.8	O=C(N[C@H]1C2CC3CC1C[C@@](O)(C3)C2)c1cnc(N2CCSCC2)nc1C1CCCCC1 [Example 196, 4-Cyclohexyl-N-[(2r,5 s)-5-hydroxyadamantan-2-yl]-2-thiomorpholin-4-ylpyrimidine-5-carboxamide]
93.3	C[C@@H]1CN(c2ncc(C(=O)N[C@H]3C4CC5CC3C[C@@](O)(C5)C4)c(C3CCC3)n2)C[C@H](C)N1 [Example 99, 4-cyclobutyl-2-[(3R,5S)-3,5-dimethylpiperazin-1-yl]-N-[(2r,5s)-5-hydroxyadamantan-2-yl]pyrimidine-5-carboxamide]
94	CN(C)c1ncc(C(=O)N[C@H]2C3CC4CC2C[C@@](O)(C4)C3)c(C2CCCC2)n1 [Example 133, 4-cyclopentyl-2-dimethylamino-N-[(2r,5s)-5-hydroxyadamantan-2-yl]pyrimidine-5-carboxamide]
97.4	COc1ncc(C(=O)N[C@H]2C3CC4CC2C[C@@](O)(C4)C3)c(C2CCCC2)n1 [Example 117, 4-cyclopentyl-N-[(2r,5s)-5-hydroxyadamantan-2-yl]-2-methoxypyrimidine-5-carboxamide]
94.1	C[C@@H]1CN(c2ncc(C(=O)N[C@H]3C4CC5CC3C[C@](O)(C5)C4)c(C3CCCC3)n2)C[C@H](C)N1 [Example 134, 4-cyclopentyl-2-[(3S,5R)-3,5-dimethylpiperazin-1-yl]-N-[(2r,5s)-5-hydroxyadamantan-2-yl]pyrimidine-5-carboxamide]
99.9	C[C@@H]1CN(c2ncc(C(=O)N[C@H]3C4CC5CC3C[C@@](O)(C5)C4)c(C3CC3)n2)C[C@H](C)N1 [Example 62, 4-cyclopropyl-2-[(3R,5S)-3,5-dimethylpiperazin-1-yl]-N-[(2r,5s)-5-hydroxyadamantan-2-yl]pyrimidine-5-carboxamide]
108	O=C(N[C@H]1C2CC3CC1C[C@@](O)(C3)C2)c1cnc(OC2CCC2)nc1C1CCCC1 [Example 111, 2-cyclobutyloxy-4-cyclopentyl-N-[(2r,5s)-5-hydroxyadamantan-2-yl]pyrimidine-5-carboxamide]
97.8	O=C(N[C@H]1C2CC3CC1C[C@@](O)(C3)C2)c1cnc(NC2CCC2)nc1C1CCC1 [Example 98, N-[(2r,5s)-5-hydroxyadamantan-2-yl] 4-cyclobutyl-2-(cyclobutylamino)pyrimidine-5-carboxamide]
101	O=C(N[C@H]1C2CC3CC1C[C@@](O)(C3)C2)c1cnc(OC2CCCC2)nc1C1CCC1 [Example 106, 4-cyclobutyl-2-(cyclopentyloxy)-N-[(2r,5s)-5-hydroxyadamantan-2-yl]pyrimidine-5-carboxamide]

same assay, conditions: recombinant N terminal 6-His tagged full length human 11βHSD1; cortisone 160 nM; 25 minutes at 37° C.

IC50 [nM]	Structure (SMILES)
3	CCCSc1ncc(C(=O)N[C@H]2C3CC4CC2C[C@@](O)(C4)C3)c(N(C)C)n1 [Example 18, 4-Dimethylamino-N-[(2r,5s)-5-hydroxyadamantan-2-yl]-2-propylsulfanylpyrimidine-5-carboxamide]
70	CSc1ncc(C(=O)N[C@H]2C3CC4CC2C[C@@](O)(C4)C3)c(C2CC2)n1 [Example 11, 4-Cyclopropyl-N-[(2r,5s)-5-hydroxyadamantan-2-yl]-2-methylsulfanyl-pyrimidine-5-carboxamide]
45	Cc1ncc(C(=O)NC2C3CC4CC(C3)CC2C4)c(C2CC2)n1 (stereo not shown) [Example 12, N-(2-adamantyl)-4-cyclopropyl-2-methyl-pyrimidine-5-carboxamide]
